Marks after values point to notes of the source that are not given here.
What was measured:
[1] = test system: mecA gene; Staphylococcus ribosomal nucleic acids; assay: HPA after thermal lysis, base hydrolysis and neutralization (Examples 5-7); format: binding, S. aureus
Description: The cultured S. aureus specimens were lysed by suspending 1 μl loops of bacteria in 150 μl of lysis buffer and then incubating at 105° C. for 15 minutes. Next, 100 μl of 2 N LiOH base solution was added and RNA was hydrolyzed by incubating the mixtures at 60° C. for 15 minutes. Hydrolyzed samples were neutralized by the addition of 100 μl of a neutralizing reagent that included 2 N HCl and 100 mM succinate buffer (pH 5.5 prior to acidification with HCl). Specifically hybridized probe was detected by standard HPA, essentially as described in Example 1.
Specimens (1 μl loops of bacteria) were treated and tested essentially as described in Example 5 with the following differences: incubation for lysis was for 15 minutes and incubation for hybridization was for 45 minutes for samples shown in Tables 7-8, while incubation for lysis was for 10 minutes and incubation for hybridization was for 20 minutes for samples shown in Table 9. All of the base-treated solutions were neutralized by the addition of 250 μl of 0.8 N HCl containing 100 mM succinate.
2′-methoxy analogs of the AE-labeled DNA probes were prepared by standard phosphoramidite synthesis using 2′ methoxy phosphoramidite analogs. Additional linker positions, which are indicated by parentheses in Table 11, for probe 2 were also prepared for testing. Deoxy probes and 2′-methoxy probe analogs were tested essentially as described in Example 5, except as noted below. Probes synthesized using 2′-methoxy nucleotide analogs are particularly identified by the “MeO” designations. Brief summaries of the procedures used to obtain the results are appended to the tables.

[2] = test system: VanA and VanB gene sequences; assay: HPA for detecting VanA and VanB gene sequences (Example 12); format: binding, E. faecalis, E. faecium
Description: Double-stranded plasmids harboring inserts of either VanA or VanB gene sequences were prepared for use as control templates. More specifically, VanA gene sequences were amplified in a PCR protocol using primers having the sequences of VanA(+)464 Kpn and VanA(−)1325Bam. Similarly, VanB gene sequences were amplified using primers having the sequences of VanB(+)084 Kpn and VanB(−)1006Bam. Genomic DNA samples from bacteria known to have VanA or VanB genotypes were used as templates in the amplification reactions. Blunt-ended amplification products containing VanA gene sequences were ligated into a pPCR-[…] SK(+) (Stratagene; La Jolla, Calif.) plasmid cloning vector, and propagated in E. coli host bacteria using procedures that will be familiar to those having an ordinary level of skill in the art. Double-stranded amplification products containing VanB gene sequences were first digested with KpnI and BamHI, and then ligated into a similarly cleaved pBLUESCRIPT-II KS(+) (Stratagene; La Jolla, Calif.) plasmid cloning vector. Isolated double-stranded plasmid DNA served as controls in hybridization assays.
2′-deoxy probes having the sequences presented under Example 10 were prepared by standard phosphoramidite synthesis. AE labeling of the probes also was performed using standard procedures, as described herein and as will be familiar to those having an ordinary level of skill in the art. Samples of four different cultured VRE bacteria described under the previous Example were lysed essentially as described above. RNA in the samples was hydrolyzed and DNA denatured by incubation of the lysate with hydroxide at elevated temperature. In parallel procedures, samples of two plasmid clones harboring either the VanA or VanB inserts (as described under the previous Example) were also treated to denature DNA. All samples were neutralized by addition of a buffered HCl reagent. AE-labeled probes were added to each of the samples and then hybridized at 55-60° C. for 45 minutes to permit formation of complementary probe:target duplexes. The pan-bacterial probe (Probe Reagent 1, GEN-PROBE® MTC-NI Kit, catalog no. 4573) described under Example 2 was used as a positive control to confirm the presence of bacterial nucleic acid targets. Trials containing labeled probe in the absence of an added target (i.e., “probe alone”) served as negative controls. The AE label joined to probe molecules that remained single-stranded following the hybridization procedure were destroyed by treatment under mild alkaline conditions, and the extent of specific hybrid formation quantified by luminometry as described in the foregoing Examples.

[3] = ATCC 51299 (VanB), E. faecalis lysate
[4] = ATCC 51575 (VanB), E. faecalis lysate
[5] = ATCC 700221 (VanA), E. faecium lysate
[6] = ATCC 700802 (VanB), E. faecalis lysate
[7] = samples containing nucleic acids from VanB-positive VRE bacteria
[8] = Table 7, lysis 15 minutes, hybridization 45 minutes
[9] = Table 9, lysis 10 minutes, hybridization 20 minutes
[10] = Table 11, neutralize 250 μl 0.8 N HCl containing 100 mM succinate, hybridize 45 minutes at 60° C.
[11] = Table 8, lysis 15 minutes, hybridization 45 minutes
[12] = samples containing nucleic acids from the single VanA-positive bacterial isolate
[13] = VanA-positive bacterial sample ATCC # 700221
[14] = average over VanB-positive bacterial samples ATCC Nos. 51575, 700802 and 51299
[15] = Table 10, neutralize 100 μl 2 N HCl containing 200 mM succinate, hybridize 45 minutes at 60° C.

Substance | Probe Hybridization (in RLU) [2, 3] [RLU] | Probe Hybridization (in RLU) [2, 4] [RLU] | Probe Hybridization (in RLU) [2, 5] [RLU] | Probe Hybridization (in RLU) [2, 6] [RLU] | Probe Hybridization (in RLU) ([2]; Probe Alone (no added target)) [RLU] | Probe Hybridization (in RLU) ([2]; VanA clone (plasmid)) [RLU] | Probe Hybridization (in RLU) ([2]; VanB clone (plasmid)) | GP1217(Pos) RLU [1, 9] [RLU] | Probe alone Avg RLU [1, 9] [RLU] | also measured
CCACTCAAGAGAGACAACATTTTCGACTAC (chemistry not given here) [S. aureus probe with helpers] |  |  |  |  |  |  |  |  |  | RLU ([1]; Table 6, GP18(Neg), MSSA ATCC #12600): 148,780 RLU; RLU ([1]; Table 6, GP1214(Neg), MSSA ATCC #29247): 203,725 RLU; RLU ([1]; Table 6, GP1217(Pos), MRSA ATCC #33591): 199,476 RLU; RLU ([1]; Table 6, GP1218(Pos), MRSA ATCC #43866): 163,825 RLU
CCGCAGCTTGCATGGACAAATCACTGGC (DNA, backbone and methylation of C not given here; further chemistry not fully specified; listed as Enterococcus faecalis) [VanB(+)084] | 7863 | 6003 | 768 | 10119 | 371 | 716 | 54711 RLU |  |  | hybridization signal (in words) [2, 7]: very strong signals
CGATTGTGACACGATAGCCATCTTCATGTTGGAGC (DNA, backbone and methylation of C not given here; acridinium ester label on internal non-nucleotide linker; listed as Staphylococcus aureus) [probe 6] |  |  |  |  |  |  |  | 55947 | 1004 | GP18(Neg) RLU [1, 8]: 1195 RLU; GP1217(Pos) RLU [1, 8]: 38158 RLU; Probe alone Avg RLU [1, 8]: 6117 RLU; GP1214(Neg) RLU [1, 10]: 1994 RLU; GP1217(Pos) RLU [1, 10]: 43307 RLU; Probe alone Avg RLU [1, 10]: 1540 RLU
CGCATCCATCAGGAAAACGAGCCGG (DNA, backbone and methylation of C not given here; acridinium ester (AE) label attached via linker; listed as Enterococcus faecalis) [VanB(+)428] | 8113 | 6307 | 683 | 9657 | 370 | 684 | 49242 RLU |  |  | hybridization signal (in words) [2, 7]: very strong signals
CGGACGTTCAGTCATTTCTACTTCACCATTATCGC (DNA, backbone and methylation of C not given here; acridinium ester label on internal non-nucleotide linker; listed as Staphylococcus aureus) [probe 4] |  |  |  |  |  |  |  | 34352 | 734 | GP18(Neg) RLU [1, 11]: 641 RLU; GP1217(Pos) RLU [1, 11]: 20192 RLU; Probe alone Avg RLU [1, 11]: 690 RLU
CGTTCAGTACAATGCGGCCG (DNA, backbone and methylation of C not given here; further chemistry not fully specified; listed as Enterococcus faecium) [VanA(−)1325] | 1182 | 1761 | 23523 | 931 | 368 | 24378 | 942 RLU |  |  | hybridization signal (in words) [2, 12]: very strong hybridization signals
GAGCTTTGAATATCGCAGCCTAC (AE label linker 11/12, chemistry not fully specified; listed as Enterococcus faecalis) [Van A&B(−)734] | 5497 | 5166 | 8901 | 7425 | 240 | 48999 | 718† RLU |  |  | background-corrected hybridization signal relative to negative control (fold greater than background) [2, 13]: about 36 fold; background-corrected hybridization signal relative to negative control (fold greater than background) [2, 14]: about 24 fold; hybridization signal (in words) ([2]; nucleic acids from VRE bacteria either VanA-positive or VanB-positive): very strong signals
GCGATAATGGTGAAGTAGAAATGACTGAACGTCCG (DNA, backbone and methylation of C not given here; acridinium ester label on internal non-nucleotide linker; listed as Staphylococcus aureus) [probe 3] |  |  |  |  |  |  |  | 46566 | 684 | GP18(Neg) RLU [1, 11]: 371 RLU; GP1217(Pos) RLU [1, 11]: 36123 RLU; Probe alone Avg RLU [1, 11]: 445 RLU; GP1214(Neg) RLU [1, 10]: 1303 RLU; GP1217(Pos) RLU [1, 10]: 36993 RLU; Probe alone Avg RLU [1, 10]: 1098 RLU
GCTCCAACATGAAGATGGCTATCGTGTCACAATCG (DNA, backbone and methylation of C not given here; acridinium ester label on internal non-nucleotide linker; listed as Staphylococcus aureus) [probe 5] |  |  |  |  |  |  |  | 42816 | 2823 | GP18(Neg) RLU [1, 8]: 1250 RLU; GP1217(Pos) RLU [1, 8]: 37472 RLU; Probe alone Avg RLU [1, 8]: 4088 RLU
GCTGAGCTTTGAATATCGCAGCC (AE label linker 8/9, chemistry not fully specified; listed as Enterococcus faecium) [VanA(−)792] | 2983 | 2254 | 10627 | 3653 | 256 | 52729 | 505 RLU |  |  | background-corrected hybridization signal relative to negative control (fold greater than background) [2, 13]: about 40 fold; background-corrected hybridization signal relative to negative control (fold greater than background) [2, 14]: about 10.5 fold; hybridization signal (in words) [2, 12]: very strong hybridization signals
GGGTTGCTCAGAGGAGCATGACGTATCGG (DNA, backbone and methylation of C not given here; further chemistry not fully specified; listed as Enterococcus faecium) [VanA(+)464] | 765 | 696 | 10910 | 757 | 374 | 37434 | 817 RLU |  |  | hybridization signal (in words) [2, 12]: very strong hybridization signals
MeO-probe 1: 2′-methoxy analog of AE-labeled probe 1 (SEQ ID NO:1) (DNA GGTATGTGGAAGTTAGATTGGGATCATAGCG; all 2'-O-methyl, backbone and T or U not given here; acridinium ester label on internal non-nucleotide linker; listed as Staphylococcus aureus) |  |  |  |  |  |  |  |  |  | GP1214(Neg) RLU [1, 15]: 2308 RLU; GP1217(Pos) RLU [1, 15]: 62594 RLU; Probe alone Avg RLU [1, 15]: 1879 RLU; GP1214(Neg) RLU [1, 10]: 975 RLU; GP1217(Pos) RLU [1, 10]: 33659 RLU; Probe alone Avg RLU [1, 10]: 779 RLU

From patent US20040229268A1, “Method and kit for identifying antibiotic-resistant microorganisms” (priority 2003, published 2004)
